Laboratory results: EP0639380B1, “Cyclodextrin inclusion product of taxol, process for producing the same, and its use” (Ensuiko Sugar Refining Company, Limited, priority 1993, dated 1995)
Where two headings read alike, the source gives them in different places.

What was measured:
[1] = 70 min
Description: 098 g of hydroxyethyl-β-CD in which, of 21 hydroxyl groups contained in one β -CD molecule, an average of 1.6 groups are substituted through an ether bond with a hydroxyethyl group (hereinafter referred to as HE-β-CD) or 0.090 g of hydroxypropyl-β-CD in which, of 21 hydroxyl groups contained in one β -CD molecule, an average of 0.9 groups are substituted through an ether bond with a hydroxypropyl group (hereinafter referred to as HP-β -CD), and the volume of each solution was adjusted to 10 ml to prepare aqueous CD solutions of a concentration of 6 mM.
To the solutions were added 2 mg each of taxol, and the resulting mixtures were stirred at room temperature (20 to 25°C) at 5,000 r.p.m. As a control, 2 mg of taxol were added to 10 ml of water, and the resulting mixture was stirred at room temperature (20 to 25°C) at 5,000 r.p.m. After 70 minutes of stirring, the solutions were passed through a filter of a pore diameter of 0. 45µm, and the concentration of taxol contained in the filtrates was determined by highperformance liquid chromatography (HPLC).
Then, 20 mg of taxol were added to the aqueous DM-β-CD solution, 2 mgof taxol to the aqueous HP-β-CD solution, and 1 mg each of taxol to the other aqueous CD solutions, and the resulting mixtures were stirred at room temperature (20 to 25°C) at 5,000 r.p.m. As a control, 1 mg of taxol was added to 10 ml of water, and the resulting mixture was stirred at room temperature (20 to 25°C) at 5,000 r.p.m. After 70 minutes of stirring, the solutions were passed through a filter with a pore diameter of 0.45µm, and the concentration of taxol contained in the filtrates was determined.

[2] = type: physicochemical
Description: Into 70 ml of a mixture of methanol and water (volume ratio, 1:1), the same volume of a mixture of acetonitrile and water (volume ratio, 1: 1), the same volume of a mixture of acetone and water (volume ratio, 1: 1) and the same volume of mixture of tetrahydrofuran and water (volume ratio, 1:1) were added 5 mg each of taxol. To the resulting taxol solutions were added 500 mg each of DM-β-CD, and the resulting mixtures were stirred vigorously by a stirrer at a temperature of 25°C. After two hours of stirring, 100 ml each of water were added thereto, and the resulting solutions were freeze-dried, so as to obtain powders by completely removing the water and the organic solvents. Then, 8 mg each of the thus-obtained powders were dissolved into 1 ml of water while stirring, and the resulting solutions were passed through a filter with a pore size of 0. 45µm, and the concentration of DM-β-CD and of the taxol contained in the filtrates was determined by HPLC. […]
Two taxol solutions were prepared by dissolving 5 mg each of taxol into 100 ml each of mixtures of methanol and water (volume ratio, 1:1). To these solutions were added 50 mg of HE-β-CD or HP-β-CD, and the resulting mixtures were vigorously stirred using a stirrer at 25°C. […]

Row | Solubility of Taxol [1] | Solubilty of Taxol [1] | Solubility of Taxol [2] | Compound
1 | 47.1 µ g/ml | 1236 µ g/ml |  | 2, 6-di-O-methyl- β -CD [DM-β-CD]
2 | 0.5 µ g/ml | 23.0 µ g/ml |  | 6-mono-O-maltosyl-β-CD [G2-β-CD]
3 | 0 µ g/ml |  |  | CC(=O)O[C@H]1C(=O)[C@@]2(C)[C@H]([C@H](OC(=O)c3ccccc3)[C@]3(O)C[C@H](OC(=O)[C@H](O)[C@@H](NC(=O)c4ccccc4)c4ccccc4)C(C)=C1C3(C)C)[C@]1(OC(C)=O)CO[C@@H]1C[C@@H]2O [CD not added (Control), taxol]
4 | 0.5 µ g/ml | 22.2 µ g/ml | 1.3 µ g/ml | hydroxyethyl-β-CD [HE-β-CD]
5 | 1.1 µ g/ml | 68.9 µ g/ml | 6.1 µ g/ml | hydroxypropyl-β-CD [HP-β-CD]
